Values quoted from earlier work in patent publication US9555015B2, “Antimicrobial compositions and methods for their use” (Dermcare-Vet Pty Ltd, priority 2004, dated 2017).

Legend:
[1] = especially in concentrations as high as 2%, particularly when the tympanic membrane has been ruptured
[2] = 0.2% chlorhexidine, external ear, ruptured tympanic membranes
[3] = 0.02% chlorhexidine compositions, bladder instillation

In the case of `[H]/N=C(\N/C(=N/[H])NCCCCCCNC(=N)NC(=N)Nc1ccc(Cl)cc1)Nc1ccc(Cl)cc1` [chlorhexidine], the ototoxicity [1] is given as “ototoxic”, the ototoxic effects [2] is given as “no ototoxic effects” and the bladder adverse effect [3] is given as “chemical cystitis resulting in haematuria”.
